# Data: patent US7956041B2, “Prophylactic and therapeutic agent of diabetes mellitus” (Ajinomoto Co., Inc., priority 2002, dated 2011)
# Columns and labels:
# Male Wistar rats [1] = experiment: Test Example 2A: excretion action of urine sugar in rat; assay type: in vivo; settings: urine collected 24 hours
# Protocol: Male Wistar rats aged 5 weeks (purchased from Charles River Japan, Inc.) were acclimatized in metabolic cages for one week, for use at this experiment. The test compounds suspended in olive oil were dosed at 5 ml per 1 kg rat body weight.
# After the rats were starved for 4 hours, the test compounds were orally given to the rats at 11 am. Immediately after dosing until 24 hours later, urine was collected. The volume of urine was measured. Then, urine sugar concentration was assayed by glucose oxidase method, to calculate the glucose excretion into urine per individual per day.
# [2] = tested on: Type 2 diabetic model GK rats; experiment: Example III: blood glucose on day 25 of once daily dosing in GK rats; assay type: in vivo, rat; settings: once daily p.o., FIG. 4
# Protocol: Type 2 diabetic model GK rats (age of 7 weeks; male) were divided into groups with matched blood glucose levels and body weights, for once daily oral administration of the inhibitor A of renal glucose reabsorption (30 mg/kg) or glibenclamide at 3 or 6 mg/kg. Further, a group given with a combination of the inhibitor A of renal glucose reabsorption at 30 mg/kg and glibenclamide at 3 mg/kg was prepared. These agents were orally given once daily at the same time period as in the group administered with a single one agent. Only a vehicle was given orally to a control group. On day 25 after the start of administration, blood glucose was assayed sequentially, to compare the groups in terms of the resulting blood glucose levels.
# [3] = tested on: glucose-loaded rats (Wistar rats); experiment: Example I: blood glucose time course after oral glucose loading in rats; assay type: in vivo, rat; settings: glucose 1 g/kg p.o.
# Protocol: Wistar rats (age of 7 weeks; male) were divided into groups with matched body weights. After 17-hour starvation, glucose was orally given at 1 g/kg to the animals. Immediately after the administration, the inhibitor A of renal glucose reabsorption or the inhibitor B of renal glucose reabsorption (A at 30 mg/kg or 60 mg/kg; B at 30 mg/kg or 80 mg/kg) or glibenclamide (1 mg/kg or 2 mg/kg) or nateglinide (50 mg/kg or 80 mg/kg) was orally given. Additionally, a group on the combined use of both of an inhibitor of renal glucose reabsorption and a hypoglycemic agent was also prepared. A vehicle was orally given to a control group after glucose administration.
# Blood glucose was measured in a time course.
# [4] = tested on: Type 2 diabetes model Zucker diabetic fatty rats; experiment: Example V: insulin content in pancreas of Zucker diabetic fatty rats (ELISA); assay type: in vivo, rat; settings: twice daily p.o., day 39, starved 18 h, inhibitor A 30 mg/kg and/or metformin 200 mg/kg, FIG. 5
# Protocol: Type 2 diabetes model Zucker diabetic fatty rats (age 15 weeks) were divided into groups with matched blood glucose levels and body weights. Subsequently, the inhibitor A of renal glucose reabsorption at 30 mg/kg or metformin at 200 mg/kg was orally given twice daily. Further, a group to be on a combined use of the inhibitor A of renal glucose reabsorption (30 mg/kg) and metformin (200 mg/kg) was prepared. The agents were orally given twice daily at the same time period as in the case of the groups administered with a single one of these agents. Only a vehicle was orally given twice daily to the animals in a control group. On day 39 from the start of administration, the animals were starved for 18 hours. Then, pancreas was resected from the animals, for the assay of insulin in pancreas homogenates by ELISA, to compare the groups in terms of insulin content in pancreas.
# Zucker diabetic fatty rat is a type 2 diabetic model animal, where the sustainment of hyperglycemic conditions induces a high concentration of glycated hemoglobin so that the aging of the model animal involves the decrease of the insulin content in pancreas.
# [5] = tested on: glucose-loaded mice (KK mice); experiment: Example II: blood glucose time course after oral glucose loading in KK mice; assay type: in vivo, mouse; settings: glucose 1 g/kg p.o., FIG. 3; for Blood glucose 30 minutes after glucose loading / Blood glucose 60 minutes after glucose loading / Blood glucose 2 hours after glucose loading and thereafter: metformin 200 mg/kg, inhibitor A 30 mg/kg p.o., vs control; for Pattern of glycemic suppression at elevated dose: metformin 300 mg/kg, inhibitor A 45 mg/kg
# Protocol: KK mice (age of 25 weeks; male) fed with a commercially available high-calories feed for breeding (CMF; Oriental Yeast) were divided into groups with matched body weights. After starvation for 17 hours, glucose was orally given at 1 g/kg. Immediately thereafter, the inhibitor A of renal glucose reabsorption (30 mg/kg or 45 mg/kg) or metformin (200 mg/kg or 300 mg/kg) was orally given. Additionally, a group given with the inhibitor A of renal glucose reabsorption (30 mg/kg) and metformin (200 mg/kg) was prepared. A vehicle was orally given to a control group after glucose dosing.
# Blood glucose level was assayed in a time course.
# Male Wistar rats [6] = experiment: Test Example 1B: excretion action of urine sugar in rat; assay type: in vivo; settings: oral administration, 24 hours
# Protocol: Male Wistar rats aged 5 weeks (purchased from Charles River Japan, Inc.) were acclimatized in metabolic cages for one week, for use at this experiment. The test compounds suspended in olive oil were prepared into solutions to a dose of 5 ml per 1 kg rat body weight. After the rats were starved for 4 hours, the test compounds were orally given at 10, 30 and 100 mg/kg to the rats at 11 am. Immediately after dosing until 24 hours later, urine was collected. The volume of urine was measured. Then, urine glucose concentration was assayed by glucose oxidase method, to calculate the glucose excretion into urine per individual per day. As a positive control, 3-(5-benzo[b]furanyl)-2′-(6-o-methoxycarbonyl-β-D-glucopyranosyloxy)-6′-hydroxy-4′-methylpropiophenone [under a different name of 3-(benzo[b]furan-5-yl)-2′,6′-dihydroxy-4′-methylpropiophenone 2′-o-(6-o-methoxycarbonyl-β-D-glucopyranoside)] was used.
# [7] = glibenclamide 3 mg/kg and/or inhibitor A 30 mg/kg
# [8] = glibenclamide 1 mg/kg and/or inhibitor A 30 mg/kg p.o., vs vehicle, FIG. 1
# [9] = glibenclamide 2 mg/kg, inhibitor A 60 mg/kg, FIG. 1
# [10] = nateglinide 50 mg/kg and/or inhibitor B 30 mg/kg p.o., vs vehicle, FIG. 2
structure (smiles),measurement,setting,value
"CCc1ccc(Cc2c(O[C@@H]3O[C@H](COC(=O)OC)[C@@H](O)[C@H](O)[C@H]3O)nn(Cc3ccc(OC)cc3)c2C(F)(F)F)cc1 [Production Example 6-A, 4′-[(4′-ethylphenyl)methyl]-1′-[(4′-methoxyphenyl)methyl]-5′-trifluoromethyl-1H-pyrazole-3′-o-(6-carbomethoxy)-β-D-glucopyranoside]",Excreted urine sugar,Male Wistar rats [1]; Dose 100 mg/kg p.o.,59 mg
CCc1ccc(Cc2c(O[C@@H]3O[C@H](CO)[C@@H](O)[C@H](O)[C@H]3O)nn(C3CCC3)c2C(F)(F)F)cc1 [1′-cyclobutyl-4′-[(4-ethylphenyl)methyl]-5′-trifluoromethyl-1H-pyrazole-3′-o-β-D-glucopyranoside],Blood glucose level on day 25,[2]; [7],"significantly lowered, compared with the group given the vehicle"
same,Blood glucose immediately after glucose loading (30 minutes),[3]; [8],suppressed hyperglycemia observed in the vehicle group immediately after glucose loading
same,Pattern of glycemic suppression at increased dose,[3]; [9],The pattern of glycemic suppression did not change even when the dose was elevated
same,Insulin content in pancreas,[4],no difference was observed in insulin content in spleen
same,Blood glucose 30 minutes after glucose loading,[5],could suppress hyperglycemia 30 minutes and 60 minutes after glucose loading
same,Blood glucose 60 minutes after glucose loading,[5],could suppress hyperglycemia 30 minutes and 60 minutes after glucose loading
same,Blood glucose 2 hours after glucose loading and thereafter,[5],could not suppress the blood glucose level 2 hours later and thereafter
same,Pattern of glycemic suppression at elevated dose,[5],the pattern of glycemic suppression did not change even when the dose was elevated
"COC(=O)OC[C@H]1O[C@@H](Oc2nn(C(C)C)c(C)c2Cc2ccc(OC)c(F)c2)[C@H](O)[C@@H](O)[C@@H]1O [Production Example 10-A, 4′-[(3′-fluoro-4′-methoxyphenyl)methyl]-1′-isopropyl-5′-methyl-1H-pyrazole-3′-o-(6-carbomethoxy)-β-D-glucopyranoside]",Excreted urine sugar,Male Wistar rats [1]; Dose 100 mg/kg p.o.,734 mg
"CCc1ccc(Cc2c(O[C@@H]3O[C@H](COC(=O)OC)[C@@H](O)[C@H](O)[C@H]3O)nn(-c3ccccc3)c2C(F)(F)F)cc1 [Production Example 8-A, 4′-[(4′-ethylphenyl)methyl]-1′-phenyl-5′-trifluoromethyl-1H-pyrazole-3′-o-(6-carbomethoxy)-β-D-glucopyranoside]",Excreted urine sugar,Male Wistar rats [1]; Dose 100 mg/kg p.o.,4.1 mg
CC(C)[C@H]1CC[C@H](C(=O)N[C@H](Cc2ccccc2)C(=O)O)CC1 [nateglinide],Blood glucose 30 minutes after glucose loading,[3]; [10],more highly suppressed hyperglycemia immediately after glucose loading (30 minutes and 60 minutes)
same,Blood glucose 60 minutes after glucose loading,[3]; [10],more highly suppressed hyperglycemia immediately after glucose loading (30 minutes and 60 minutes)
same,Blood glucose 120 minutes after glucose loading and thereafter,"[3]; nateglinide 50 mg/kg p.o., vs vehicle, FIG. 2",did not lower the blood glucose level 120 minutes after glucose loading and thereafter
same,Pattern of glycemic suppression at increased dose,"[3]; nateglinide 80 mg/kg, inhibitor B 80 mg/kg, FIG. 2",the pattern of glycemic suppression did not change even by the elevation of the dose
"CCc1ccc(Cc2c(OC3OC(COC(=O)OC)C(O)C(O)C3O)nn(C(CF)CF)c2C(F)(F)F)cc1 [Production Example 2B, 4′-[(4′-ethylphenyl)methyl]-1′-(1′,3′-difluoro-2′-propyl)-5′-(trifluoromethyl)-1H-pyrazole-3′-o-(6-o-methoxycarbonyl-β-D-glucopyranoside)]",Excreted urine sugar,Male Wistar rats [6]; Dose 10 mg/kg,136 mg
same,Excreted urine sugar,Male Wistar rats [6]; Dose 30 mg/kg,272 mg
same,Excreted urine sugar,Male Wistar rats [6]; Dose 100 mg/kg,524 mg
"Cc1[nH]nc(O[C@@H]2O[C@H](CO)[C@@H](O)[C@H](O)[C@H]2O)c1Cc1ccc(OC(C)C)cc1 [Reference Production Example 1, 4-[(4-isopropoxyphenyl)methyl]-5-methyl-1H-pyrazole-3-o-β-D-glucopyranoside, reference compound]",Excreted urine sugar,Male Wistar rats [1]; Dose 100 mg/kg p.o.,14 mg
COc1ccc(Cl)cc1C(=O)NCCc1ccc(S(=O)(=O)NC(=O)NC2CCCCC2)cc1 [glibenclamide],Blood glucose level on day 25,[2]; [7],no difference was observed from the vehicle-dosed group in terms of the blood glucose levels
same,Blood glucose level on day 25,[2]; glibenclamide 6 mg/kg,did not produce any difference in blood glucose level from the vehicle-dosed group
same,Blood glucose 120 minutes after glucose loading and thereafter,[3]; [8],lowered blood glucose 120 minutes after glucose loading and thereafter
same,Blood glucose immediately after glucose loading (30 minutes),[3]; [8],did not suppress hyperglycemia immediately after glucose loading
same,Pattern of glycemic suppression at increased dose,[3]; [9],did not change changed the pattern of glycemic suppression
"CCc1ccc(Cc2c(O[C@@H]3O[C@H](COC(=O)OC)[C@@H](O)[C@H](O)[C@H]3O)nn(C(C)C)c2C)cc1 [Production Example 16-A, 4′-[(4-ethylphenyl)methyl]-1′-isopropyl-5′-methyl-1H-pyrazole-3′-o-(6-carbomethoxy)-β-D-glucopyranoside]",Excreted urine sugar,Male Wistar rats [1]; Dose 3 mg/kg p.o.,28 mg
same,Excreted urine sugar,Male Wistar rats [1]; Dose 10 mg/kg p.o.,263 mg
same,Excreted urine sugar,Male Wistar rats [1]; Dose 30 mg/kg p.o.,294 mg
same,Excreted urine sugar,Male Wistar rats [1]; Dose 100 mg/kg p.o.,598 mg
"CCc1ccc(Cc2c(O[C@@H]3O[C@H](COC(=O)OC)[C@@H](O)[C@H](O)[C@H]3O)nn(Cc3ccccc3)c2C(F)(F)F)cc1 [Production Example 4-A, 4′-[(4′-ethylphenyl)methyl]-1′-benzyl-5′-trifluoromethyl-1H-pyrazole-3′-o-(6-carbomethoxy)-β-D-glucopyranoside]",Excreted urine sugar,Male Wistar rats [1]; Dose 100 mg/kg p.o.,27 mg
"CN(C)C(=N)N=C(N)N [metformin, reference compound]",Insulin content in pancreas,[4],no difference was observed in insulin content in spleen
same,Blood glucose 30 minutes after glucose loading,[5],did not suppress the increase of blood glucose in the mice 30 minutes after glucose loading
same,Blood glucose 60 minutes after glucose loading,[5],suppressed the increase 60 minutes later and thereafter
same,Blood glucose 2 hours after glucose loading and thereafter,[5],suppressed the increase 60 minutes later and thereafter
same,Pattern of glycemic suppression at elevated dose,[5],The pattern of glycemic suppression did not change even when the dose was elevated
"COC(=O)OC[C@H]1O[C@@H](Oc2nn(C(C)C)c(C)c2Cc2ccc(C)c(F)c2)[C@H](O)[C@@H](O)[C@@H]1O [Production Example 14-A, 4′-[(3′-fluoro-4′-methylphenyl)methyl]-1′-isopropyl-5′-methyl-1H-pyrazole-3′-o-(6-carbomethoxy)-β-D-glucopyranoside]",Excreted urine sugar,Male Wistar rats [1]; Dose 100 mg/kg p.o.,918 mg
